# From article PMC11858653, “Design, Synthesis and Bioactive Evaluation of Topo I/c-MYC Dual Inhibitors to Inhibit Oral Cancer via Regulating the PI3K/AKT/NF-κB Signaling Pathway” (Molecules, 2025)
# “Also recorded” adds a separate entry of the source.
# Columns and labels:
# Topo I = target: T1, Topo I (Homo sapiens, UniProt P11387); experiment: Cellular thermal shift assay (CETSA); format: cell-based; parameters: endogenous in cells; host or cells: Cal27; conditions: 8 μM
# T1 sequence (P11387 1-765): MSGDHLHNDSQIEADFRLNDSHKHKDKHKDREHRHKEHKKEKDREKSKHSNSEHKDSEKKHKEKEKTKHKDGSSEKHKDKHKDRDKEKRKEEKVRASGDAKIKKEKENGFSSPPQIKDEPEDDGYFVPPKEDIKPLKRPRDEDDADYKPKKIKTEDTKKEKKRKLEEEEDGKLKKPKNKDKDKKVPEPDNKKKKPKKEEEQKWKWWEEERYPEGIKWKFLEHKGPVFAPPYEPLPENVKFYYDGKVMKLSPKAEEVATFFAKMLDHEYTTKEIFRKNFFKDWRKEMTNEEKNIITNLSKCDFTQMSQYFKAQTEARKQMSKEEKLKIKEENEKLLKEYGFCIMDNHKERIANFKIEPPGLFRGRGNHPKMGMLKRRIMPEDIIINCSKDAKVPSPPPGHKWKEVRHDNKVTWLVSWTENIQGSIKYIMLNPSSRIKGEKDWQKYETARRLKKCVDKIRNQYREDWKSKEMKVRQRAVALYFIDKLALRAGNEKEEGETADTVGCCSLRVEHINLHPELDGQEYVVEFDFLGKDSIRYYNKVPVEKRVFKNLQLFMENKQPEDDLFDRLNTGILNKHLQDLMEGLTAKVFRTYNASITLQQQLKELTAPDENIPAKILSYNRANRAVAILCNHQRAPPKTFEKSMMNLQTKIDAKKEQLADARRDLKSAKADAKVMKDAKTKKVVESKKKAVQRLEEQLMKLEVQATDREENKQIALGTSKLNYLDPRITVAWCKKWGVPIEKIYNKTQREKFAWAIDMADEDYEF
# Description: For intact cell assays, Cal27 cells were treated with compound 7be (8 μM) for 3 h before collection and washing several times with PBS buffer to avoid excess compound residues. Each cell suspension was dispensed into different 0.2 mL PCR tubes and then denatured for 3 min at different temperatures on a PCR instrument, and the cells were freeze-thawed twice with liquid nitrogen. After centrifugation, the supernatant was collected, mixed with an appropriate amount of up-sampling buffer and boiled at 95 °C for 6 min. The supernatant was detected by Western blot. For cell lysate experiments, Cal27 cells were collected with RIPA lysis buffer. Then compound 7be (8 μM) was added to the supernatant and incubated at 25 °C for 2 h. After denaturation at different temperatures for 3 min, centrifugation was performed before collecting the supernatant, mixing with an appropriate amount of lysing buffer and boiling at 95 °C for 6 min, and then Western blot was performed to detect the supernatant.
# [1] = tested on: Bax, Bcl-2, Cleaved PARP1/PARP1 in Cal27 cells; experiment: Western blot of apoptosis-related proteins; format: cell-based, human
# Description: (§1) After Cal27 cells had been treated with the desired concentration of each drug for 24 h, the cells were collected and the total protein was extracted. The cells were then separated on a gel of appropriate concentration and transferred to a PVDF membrane. After blocking with milk, the membrane was incubated with primary antibody at 4 °C overnight. Subsequently, the membrane was incubated with horseradish peroxidase-coupled secondary antibody for 2 h. Finally, the protein bands were used to detect the immunoreactive signal using an enhanced chemiluminescence kit.
# [2] = In vivo biological safety evaluation; parameters: species or system BALB/c nude mice
# Description: Nude mouse organ and tumor tissues fixed with neutral formalin solution were paraffin-embedded according to the conventional processing method. Sections were cut to a thickness of approximately 5 μm, placed on glass slides and dewaxed in an oven at 60 °C, stained for H&E and immunohistochemistry and finally visualized with the Cytation 5 imaging system.
# For this assay, 130 SPF-grade BALB/c mice (female, 4–6 weeks old, 18–20 g) were obtained from Chang Zhou Cavens Laboratory Animal Ltd. (Changzhou, China). The in vivo activity experiments were commissioned by Nanjing OG Pharmaceuticals, Co., Ltd. (Nanjing, China) All mice were housed in plastic cages, fed, and watered under standard conditions and air filtration (22 ± 2 °C; 12 h light/dark cycles). Under aseptic conditions, human oral cancer Cal27 cells were inoculated subcutaneously in the right axilla of BALB/c nude mice. When the tumors had grown to about 85 mm^3, 24 […] mice with good growth status and good homogeneity of tumor size were selected and randomly divided into the following four groups of six mice each: (1) the model group; (2) the low-dose group; (3) the high-dose group; and (4) the positive drug group. The drug dose in the low-dose group was 10 mg/kg, which was injected intraperitoneally once every other day, for the duration of 21 days of administration; the drug dose in the high-dose group was 20 mg/kg, which was injected intraperitoneally once every other day, for the duration of 21 days of administration; and the drug dose in the cisplatin group was 2 mg/kg, which was injected intraperitoneally once every other day, for the duration of 21 days of administration. Normal tissues of the heart, liver, spleen, lung and kidney and half of the tumor tissues were fixed with 4% formalin solution and embedded in paraffin for histological analysis; the other half of the tumor tissues were preserved in liquid nitrogen, and the supernatant was extracted after milling the tissues and detected by Western blot.
# PI3K/AKT/NF-κB pathway = experiment: Western blot of PI3K/AKT/NF-κB signaling pathway in Cal27 cells; format: cell-based, human; conditions: Cal27, 24 h
# Description: as §1
# Cal27 cells [3] = experiment: MDC staining for autophagy; format: cell-based, human; conditions: 24 h
# Description: In order to determine whether compound 7be induced autophagy, Cal27 cells were incubated with compound 7be at different concentrations for 24 h. MDC staining was used to detect any MDC-positive vesicles in cells of Cal27 cells by confocal microscope (Figure 13a).
# Cal27 cells [4] = experiment: Wound healing assay; format: cell-based, human; conditions: 1-4 μM, 24 h
# Description: Cal27 cells in the logarithmic growth phase were inoculated into 6-well plates and cultured until the cells fused into a monolayer. A linear wound was then formed by scratching vertically with a 200 μL sterilized gun tip. The cells were washed 3 times with PBS to remove scraped off cells, and each well was incubated by adding medium. The initial scratched area was recorded with a microscope. Then different concentrations of the compounds to be tested were added, and the area of the scratches was recorded by microscopy 24 h later.
# c-MYC protein = experiment: Western blot of c-MYC protein in Cal27 cells; format: cell-based, human; conditions: Cal27, 24 h
# Description: as §1
compound,measurement,setting,value
"Cc1cc(C)c2c(n1)S(=O)(=O)c1c-2nc(NCCN2CCCCC2)c2ccccc12 [7be, 7,9-Dimethyl-5-((2-(piperidin-1-yl)ethyl)amino) pyrido[3′,2′:4,5]thieno[3,2-c]isoquinoline 11,11-dioxide]","thermal stability of Topo I protein, cell lysate","Topo I; Cal27 lysate, 2 h, especially 52 to 56 °C",increased
same,"thermal stability of Topo I protein, intact cells","Topo I; intact Cal27 cells, 3 h",increase in thermal stability
same,Cleaved PARP1/PARP1,[1],up-regulated
same,anti-apoptotic protein Bcl-2,[1],down-regulated
same,pro-apoptotic protein Bax,[1],up-regulated
same,body weight of mice during treatment,"[2]; 10 or 20 mg/kg i.p., 21 days",no significant decrease in body weight; also recorded: no considerable weight loss
same,organ weight of mice,[2]; end of treatment,no significant difference
same,H&E staining of major organs,"[2]; heart, liver, spleen, lung, kidney","no lesions, degenerations or histopathological abnormalities"
same,expression and phosphorylation levels of NF-κB,PI3K/AKT/NF-κB pathway,decrease
same,expression levels of PI3K,PI3K/AKT/NF-κB pathway,slightly increased
same,phosphorylation levels of PI3K and AKT,PI3K/AKT/NF-κB pathway,significantly repressed
same,MDC staining fluorescence,"Cal27 cells [3]; Cal27, high concentrations (3 μM and 4 μM)",significant green fluorescence
same,MDC staining fluorescence,"Cal27 cells [3]; Cal27, low concentrations (1 μM and 2 μM)",weak green fluorescence
same,migration of Cal27 cells (in words),Cal27 cells [4],effectively inhibit migration
same,concentration needed to significantly downregulate the level of c-MYC protein,c-MYC protein,2 µM
